Results: paper PMC4716540 (British Journal of Cancer, 2015)

Test system: patients with confirmed relapsed/refractory MM, CLL, or NHL
Experiment: Phase I safety and tolerability: adverse events, DLT, MTD, RP2D
Type: in vivo, human

CCc1c(O)cc(O)c(C(=O)c2ccc(OCCN3CCOCC3)c(OC)c2)c1CC(=O)N(CCOC)CCOC [KW-2478]
Number of treatment-related AEs per patient (average) (14 mg m^–2): 1.0
AE (treatment-emergent) (14 mg m^–2 (n=3)): 3 (100.0) No. of patients (%)
Abdominal pain (any AE) (14 mg m^–2 (n=3)): 0 No. of patients (%)
Acne (any AE) (14 mg m^–2 (n=3)): 0 No. of patients (%)
Anaemia (any AE) (14 mg m^–2 (n=3)): 0 No. of patients (%)
Anorexia (any AE) (14 mg m^–2 (n=3)): 0 No. of patients (%)
Back pain (any AE) (14 mg m^–2 (n=3)): 1 (33.3) No. of patients (%)
Diarrhoea (any AE) (14 mg m^–2 (n=3)): 0 No. of patients (%)
Dizziness (any AE) (14 mg m^–2 (n=3)): 0 No. of patients (%)
Fatigue (any AE) (14 mg m^–2 (n=3)): 1 (33.3) No. of patients (%)
Haemoglobin decreased (any AE) (14 mg m^–2 (n=3)): 0 No. of patients (%)
Hair disorder (any AE) (14 mg m^–2 (n=3)): 0 No. of patients (%)
Headache (any AE) (14 mg m^–2 (n=3)): 1 (33.3) No. of patients (%)
Herpes simplex infection (any AE) (14 mg m^–2 (n=3)): 0 No. of patients (%)
Hypertension (any AE) (14 mg m^–2 (n=3)): 0 No. of patients (%)
LRTI (any AE) (14 mg m^–2 (n=3)): 0 No. of patients (%)
Musculoskeletal chest pain (any AE) (14 mg m^–2 (n=3)): 0 No. of patients (%)
Nausea (any AE) (14 mg m^–2 (n=3)): 1 (33.3) No. of patients (%)
Oral herpes (any AE) (14 mg m^–2 (n=3)): 0 No. of patients (%)
Rhinitis (any AE) (14 mg m^–2 (n=3)): 1 (33.3) No. of patients (%)
Serious AE (14 mg m^–2 (n=3)): 0 No. of patients (%)
Treatment-related AE (14 mg m^–2 (n=3)): 2 (66.7) No. of patients (%)
Vomiting (any AE) (14 mg m^–2 (n=3)): 0 No. of patients (%)
AE (treatment-emergent) (28 mg m^–2 (n=3)): 3 (100.0) No. of patients (%)
Abdominal pain (any AE) (28 mg m^–2 (n=3)): 0 No. of patients (%)
Acne (any AE) (28 mg m^–2 (n=3)): 1 (33.3) No. of patients (%)
Anaemia (any AE) (28 mg m^–2 (n=3)): 0 No. of patients (%)
Anorexia (any AE) (28 mg m^–2 (n=3)): 0 No. of patients (%)
Back pain (any AE) (28 mg m^–2 (n=3)): 1 (33.3) No. of patients (%)
Diarrhoea (any AE) (28 mg m^–2 (n=3)): 0 No. of patients (%)
Dizziness (any AE) (28 mg m^–2 (n=3)): 0 No. of patients (%)
Fatigue (any AE) (28 mg m^–2 (n=3)): 0 No. of patients (%)
Haemoglobin decreased (any AE) (28 mg m^–2 (n=3)): 0 No. of patients (%)
Hair disorder (any AE) (28 mg m^–2 (n=3)): 1 (33.3) No. of patients (%)
Headache (any AE) (28 mg m^–2 (n=3)): 0 No. of patients (%)
Herpes simplex infection (any AE) (28 mg m^–2 (n=3)): 1 (33.3) No. of patients (%)
Hypertension (any AE) (28 mg m^–2 (n=3)): 0 No. of patients (%)
LRTI (any AE) (28 mg m^–2 (n=3)): 0 No. of patients (%)
Musculoskeletal chest pain (any AE) (28 mg m^–2 (n=3)): 0 No. of patients (%)
Nausea (any AE) (28 mg m^–2 (n=3)): 1 (33.3) No. of patients (%)
Oral herpes (any AE) (28 mg m^–2 (n=3)): 1 (33.3) No. of patients (%)
Rhinitis (any AE) (28 mg m^–2 (n=3)): 1 (33.3) No. of patients (%)
Serious AE (28 mg m^–2 (n=3)): 0 No. of patients (%)
Treatment-related AE (28 mg m^–2 (n=3)): 2 (66.7) No. of patients (%)
Vomiting (any AE) (28 mg m^–2 (n=3)): 1 (33.3) No. of patients (%)
AE (treatment-emergent) (47 mg m^–2 (n=4)): 4 (100.0) No. of patients (%)
Abdominal pain (any AE) (47 mg m^–2 (n=4)): 0 No. of patients (%)
Acne (any AE) (47 mg m^–2 (n=4)): 1 (25.0) No. of patients (%)
Anaemia (any AE) (47 mg m^–2 (n=4)): 1 (25.0) No. of patients (%)
Anorexia (any AE) (47 mg m^–2 (n=4)): 0 No. of patients (%)
Back pain (any AE) (47 mg m^–2 (n=4)): 0 No. of patients (%)
Diarrhoea (any AE) (47 mg m^–2 (n=4)): 2 (50.0) No. of patients (%)
Dizziness (any AE) (47 mg m^–2 (n=4)): 0 No. of patients (%)
Fatigue (any AE) (47 mg m^–2 (n=4)): 0 No. of patients (%)
Haemoglobin decreased (any AE) (47 mg m^–2 (n=4)): 0 No. of patients (%)
Hair disorder (any AE) (47 mg m^–2 (n=4)): 1 (25.0) No. of patients (%)
Headache (any AE) (47 mg m^–2 (n=4)): 0 No. of patients (%)
Herpes simplex infection (any AE) (47 mg m^–2 (n=4)): 0 No. of patients (%)
Hypertension (any AE) (47 mg m^–2 (n=4)): 2 (50.0) No. of patients (%)
LRTI (any AE) (47 mg m^–2 (n=4)): 0 No. of patients (%)
Musculoskeletal chest pain (any AE) (47 mg m^–2 (n=4)): 0 No. of patients (%)
Nausea (any AE) (47 mg m^–2 (n=4)): 0 No. of patients (%)
Oral herpes (any AE) (47 mg m^–2 (n=4)): 0 No. of patients (%)
Rhinitis (any AE) (47 mg m^–2 (n=4)): 1 (25.0) No. of patients (%)
Serious AE (47 mg m^–2 (n=4)): 0 No. of patients (%)
Treatment-related AE (47 mg m^–2 (n=4)): 3 (75.0) No. of patients (%)
Vomiting (any AE) (47 mg m^–2 (n=4)): 1 (25.0) No. of patients (%)
AE (treatment-emergent) (71 mg m^–2 (n=4)): 4 (100.0) No. of patients (%)
Abdominal pain (any AE) (71 mg m^–2 (n=4)): 0 No. of patients (%)
Acne (any AE) (71 mg m^–2 (n=4)): 1 (25.0) No. of patients (%)
Anaemia (any AE) (71 mg m^–2 (n=4)): 0 No. of patients (%)
Anorexia (any AE) (71 mg m^–2 (n=4)): 0 No. of patients (%)
Back pain (any AE) (71 mg m^–2 (n=4)): 0 No. of patients (%)
Diarrhoea (any AE) (71 mg m^–2 (n=4)): 2 (50.0) No. of patients (%)
Dizziness (any AE) (71 mg m^–2 (n=4)): 2 (50.0) No. of patients (%)
Fatigue (any AE) (71 mg m^–2 (n=4)): 1 (25.0) No. of patients (%)
Haemoglobin decreased (any AE) (71 mg m^–2 (n=4)): 1 (25.0) No. of patients (%)
Hair disorder (any AE) (71 mg m^–2 (n=4)): 1 (25.0) No. of patients (%)
Headache (any AE) (71 mg m^–2 (n=4)): 2 (50.0) No. of patients (%)
Herpes simplex infection (any AE) (71 mg m^–2 (n=4)): 1 (25.0) No. of patients (%)
Hypertension (any AE) (71 mg m^–2 (n=4)): 2 (50.0) No. of patients (%)
LRTI (any AE) (71 mg m^–2 (n=4)): 1 (25.0) No. of patients (%)
Musculoskeletal chest pain (any AE) (71 mg m^–2 (n=4)): 0 No. of patients (%)
Nausea (any AE) (71 mg m^–2 (n=4)): 2 (50.0) No. of patients (%)
Oral herpes (any AE) (71 mg m^–2 (n=4)): 1 (25.0) No. of patients (%)
Rhinitis (any AE) (71 mg m^–2 (n=4)): 1 (25.0) No. of patients (%)
Serious AE (71 mg m^–2 (n=4)): 2 (50) No. of patients (%)
Treatment-related AE (71 mg m^–2 (n=4)): 4 (100.0) No. of patients (%)
Death (71 mg m^–2 (n=4), considered unrelated to medication): 1 (25) No. of patients (%)
AE (treatment-emergent) (99 mg m^–2 (n=4)): 4 (100.0) No. of patients (%)
